Read-outs that look alike come from different tables or passages of the source.
Experiment: Phase 1 crossover food effect study of 375 mg grapiprant tablets: pharmacokinetics
Assay type: in vivo, human
Conditions: for AUC(0-inf) / Cmax / AUC(0-t) / half-life / Tmax: human, serum, po, 375 mg, single oral dose, healthy subjects (N = 12); for AUC(0-inf) / Cmax / AUC(0-t) / half-life: arithmetic mean; for AUC(0-t): read-out: AUC(0-tlast); for half-life: read-out: t½ (converted); for Tmax: median
Procedure: This study was a randomized, open-label, single dose, 2-period crossover design. Each subject participated in 2 study periods. In each study period, subjects received a dose of 375 mg administered as 3×125 mg tablets of grapiprant under fasted or fed conditions in a crossover manner according to a randomized dosing sequence. The fed condition consisted of a standardized high-fat meal. Following an initial screening period of no longer than 28 days, 12 eligible subjects were to be randomized to the 2 treatment sequences and 2 treatment period sessions as shown in Table 6-1.
In each study period, subjects received 375 mg grapiprant (as 3×125 mg tablets) under either fed or fasted conditions. Each subject received 2 single doses: Day 1 and Day 8.
Blood samples were collected at the following times: 0 (just prior to dosing), 0.5, 1, 1.5, 2, 2.5, 3, 4, 6, 8, 12, 16, 24 and 48 hours following each dosing. The primary pharmacokinetic endpoints of the study were AUC(0-tlast) (area under the serum concentration-time curve from time 0 to the time of the last quantifiable concentration), AUC(0-inf) (AUC from time 0 to infinite time), and Cmax (maximum observed serum concentration) of serum grapiprant. The secondary pharmacokinetic endpoints of the study were Tmax (the time to Cmax) and t½ (terminal elimination half-life), as the data permitted.
Log-transformed AUC(0-inf), AUC(0-tlast) and Cmax were each analyzed using a mixed effects model containing sequence, treatment (fed and fasted), and period as the fixed effects and subject (within sequence) as the random effect. The SAS procedure PROC MIXED was used for the analysis. Compound symmetry was assumed, and Restricted Maximum Likelihood Estimates (REML) were utilized.
For AUC(0-inf), AUC(0-tlast) and Cmax, on the natural log scale, estimates of the adjusted mean difference between grapiprant tablet under fed condition (test) and grapiprant under fasted condition (reference) and their corresponding 90% confidence intervals were calculated.
The anti-logs (exponent) of the difference and confidence interval were taken to estimate the mean ratio (relative bioavailability) and its corresponding 90% confidence interval. Vital signs, adverse events, ECG parameters, and safety laboratory values were summarized with descriptive statistics.

[1] = 375 mg tablets, adjusted geometric means, N = 12
[2] = 375 mg tablets, standard high-fat meal compared to fasted
[3] = 375 mg tablet-fed (high-fat meal)

In the case of `CCc1nc2c(C)nc(C)cc2n1-c1ccc(CCNC(=O)NS(=O)(=O)c2ccc(C)cc2)cc1` [Grapiprant, N-((4-(2-ethyl-4,6-dimethyl-1H-imidazo[4,5-c]pyridin-1-yl)phenethyl)carbamoyl)-4-methylbenzenesulfonamide], the “Geometric Mean Ratio (fed/fasted) of AUC(0-inf)” value [1] is reported as 87.48%, the “Geometric Mean Ratio (fed/fasted) of AUC(0-tlast)” value [1] is reported as 87.42% and the “Geometric Mean Ratio (fed/fasted) of Cmax” value [1] is reported as 64.16%. The “decrease in AUC” value [2] was 13%, the “decrease in Cmax” value [2] was 36% and the AUC(0-inf) (375 mg tablet-fasted) was 29100 ng·h/mL. The Cmax (375 mg tablet-fasted) was 8990 ng/mL, the AUC(0-t) (375 mg tablet-fasted) was 28900 ng·h/mL and the half-life (375 mg tablet-fasted) was 9.48 h. It also gave a Tmax (375 mg tablet-fasted) of 1 h, an AUC(0-inf) [3] of 24800 ng·h/mL and a Cmax [3] of 5840 ng/mL. The AUC(0-t) [3] was 24600 ng·h/mL, the half-life [3] was 8.52 h and the Tmax [3] was 4 h.
